The numbers were not newly measured in patent publication EP2965746B1 (Santa Farma Ilaç Sanayi A.S., priority 2014, dated 2016), which cites them from elsewhere.

Converted amounts (≈) assume the structure as drawn.

By solubility is commonly meant the concentration that dissolves in the medium under given conditions.

The conditions of data set [1]: in vivo.
The conditions of data set [2]: in water.
The conditions of data set [3]: in vivo. The source holds these as a separate data set.

In the case of `CC(C)Cc1ccc(C(C)C(=O)O)cc1` (racemic) [Ibuprofen, (±)-(R,S)-2-(4-isobutylphenyl)-propionic acid], the absolute bioavailability entry in data set [1] was “about 100%”. In addition, the solubility in data set [2] was 0.078 µg/mL (≈ 0.378 µM). The “time to reach maximum plasma concentration (Tmax)” value in data set [3] was 1.4 ± 1.1 h.
For `CC(C)Cc1ccc(C(C)C(=O)O)cc1.O.O.[Na]` (stereo not shown) [Ibuprofen sodium dihydrate, ibuprofen sodium dihydrate], the “time to reach maximum plasma concentration (Tmax)” value in data set [3] is given as 0.6 ± 0.3 h.
